Reference: patent US11891415B2, “Depsipeptides and uses thereof” (NovoBiotic Pharmaceuticals, LLC, priority 2017, dated 2024)

What was measured:
S. aureus ATCC 33591 = assay: Neutropenic mouse thigh infection model; type: in vivo; conditions: single dose of 50 mg/kg, thigh load at 26 hours
Experimental: The compound of Formula (III) was next evaluated in a neutropenic mouse thigh infection model against S. aureus ATCC 33591. For the study, mice challenged with S. aureus ATCC 33591 were intravenously administered two 5 mg/kg, 10 mg/kg, 20 mg/kg and 30 mg/kg doses of the compound of Formula (III) at 2 and 4 hours post-infection, or vancomycin as a single dose of 50 mg/kg as a control. The bacterial load in the thigh at 26 hours post-infection was measured.

MRSA ATCC 33591 = assay: Mouse septicemia model; conditions: CD-1 female mice, MRSA ATCC 33591, 2.5 mg/kg intravenous one hour post infection

For `CN[C@H](CC(C)C)C(=O)N[C@H]1C(=O)N[C@@H](CC(N)=O)C(=O)N[C@H]2C(=O)N[C@H]3C(=O)N[C@H](C(=O)N[C@H](C(=O)O)c4cc(O)cc(O)c4-c4cc3ccc4O)[C@H](O)c3ccc(c(Cl)c3)Oc3cc2cc(c3O[C@@H]2O[C@H](CO)[C@@H](O)[C@H](O)[C@H]2O[C@H]2C[C@](C)(N)[C@H](O)[C@H](C)O2)Oc2ccc(cc2Cl)[C@H]1O` [vancomycin], the “CFU reduction from the 2 hour infection controls” value (S. aureus ATCC 33591) was 0.54 log10 CFU, the “CFU reduction from the 26 hour infection controls” value (S. aureus ATCC 33591) was 3.65 log10 CFU and the survival (MRSA ATCC 33591) was “all survived”.
